Measured values as given in patent US20140023611A1 (priority 2010, published 2014).

Tests used:
NaPi2b = experiment: Competition with phosphate: Pi uptake assay repeated at 2.1 vs 0.1 mM phosphate; type: cell-based; details: potency at 2.1 vs 0.1 mM phosphate
Summary of the method: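 Phosphate uptake assay with compound, performed at 0.1 mM phosphate and repeated at 2.1 mM phosphate, with IC50 values determined at each phosphate concentration to assess competition with phosphate.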

[1] = tested on: Uptake of Phosphorus from the Intestine; experiment: In vivo bolus phosphorus challenge; parameters: species or system rat; details: Sprague-Dawley rats on low-phosphorus diet; oral Drug Dose 30, 15 min before phosphate bolus; serum 30 min post bolus
Method: (§1) By pretreating animals with a low phosphorus diet followed by the subsequent dosing of a phosphorus bolus, serum phosphorus levels were monitored after 30 minutes as a surrogate for intestinal phosphorus absorption. […] The in vivo bolus phosphorus challenge model used here mimics this model in rats.
(§2) Male, 7-week-old Sprague-Dawley rats (Charles-River laboratories international, Hollister, Calif.) were allowed to acclimatize for a minimum of 3 days before switching to a synthetic low-phosphorus diet (TD.85010, Harlan Teklad, Madison, Wis.) which contains 0.1% phosphorus and 0.6% calcium. At day 5, testing compounds or vehicle alone (as indicated) were orally administered at the indicated dose in a volume of 5 ml/kg, followed by a bolus gavage of monobasic sodium phosphate (1 mmol in 1 ml) 15 min after compound dosing. Serum was collected via retroorbital bleeding 30 min post phosphate bolus and phosphate levels were determined utilizing an ACE ALERA blood chemistry analyzer (Alfa Wassermann Diagnostic Technologies, West Caldwell, N.J.).
The extent of inhibition by test compounds on the elevation of serum phosphate levels in response to the bolus of phosphorus is shown in Table 12 (data are expressed as % Inhibition, with 6-10 animals per data point). The differences between groups were evaluated by one-way analysis of variance with Dunnett's post hoc tests.

[2] = tested on: uptake of phosphate from the intestine; experiment: In vivo assay: bolus phosphorus (phosphate) challenge; parameters: species or system Sprague-Dawley rats; details: Structure (V) examples, Table 4, rat; for Serum increase [Pi] mg/dL from baseline low PI state: mean ± SD
Method: as §1
as §2, with “N.J.). […]” for “N.J.).”
as §2, with “acclimate” for “acclimatize”
Serum was collected 30 minutes after gavage, and phosphate levels measured. […] The in vivo bolus phosphate challenge model used here mimics this model in rats.
as §2, with “to a low-phosphorus diet” for “to a synthetic low-phosphorus diet”, “bolus and serum phosphate levels” for “bolus and phosphate levels”
The representative data on effects of test compounds on serum phosphate levels are shown in Table 4 (data are expressed as mean±SD, with 6 animals per data point). The differences between groups were evaluated by one-way analysis of variance with Dunnett's post hoc tests.

[3] = oral 30 mg/kg, vehicle 5.0 ± 1.3

| SMILES | Competitive with respect to Pi? (NaPi2b) | % Inhibition of Serum P elevation [1] | % Decrease in serum [Pi] ([2]; oral 10 mg/kg) [%] | Serum increase [Pi] mg/dL from baseline low PI state ([2]; oral 10 mg/kg) [mg/dL] | % Decrease in serum [Pi] ([2]; oral 30 mg/kg) [%] | Serum increase [Pi] mg/dL from baseline low PI state [2, 3] [mg/dL] |
| --- | --- | --- | --- | --- | --- | --- |
| CN(CCN1CCOCC1)C(=O)c1cccc(C(=O)Nc2ccc(N3CCCCC3)cc2-c2cc(C(=O)NCc3cccc(C(F)(F)F)c3)ccn2)c1 [Example 80, N1-Methyl-N1-(2-morpholinoethyl)-N3-(4-(piperidin-1-yl)-2-(4-((3-(trifluoromethyl)benzyl)carbamoyl)pyridin-2-yl)phenyl)isophthalamide] | No | 20-30% |  |  |  |  |
| O=C(O)c1cccc(SCc2cccc(C(=O)Nc3ccc(N4CCCCC4)cc3-c3cc(C(=O)NCc4cccc(C(F)(F)F)c4)ccn3)c2)c1 [Example 8.1, 3-(3-(4-(piperidin-1-yl)-2-(4-(3-(trifluoromethyl)benzylcarbamoyl)pyridin-2-yl)phenylcarbamoyl)benzylthio)benzoic acid] | No |  |  |  |  |  |
| O=C(NCCN1CCOCC1)c1cccc(C(=O)Nc2ccc(N3CCCCC3)cc2C(=O)N/N=C/c2ccc(Cl)c(C(F)(F)F)c2)c1 [Ex. 53, (E)-N^1-(2-(2-(4-chloro-3-(trifluoromethyl)benzylidene)hydrazinecarbonyl)-4-(piperidin-1-yl)phenyl)-N3-(2-morpholinoethyl)isophthalamide] |  |  | 62 | 1.9 ± 1.1 | 79 | 1.1 ± 0.8 |
| COCCNC(=O)CCSCc1cccc(C(=O)Nc2ccc(N3CCCCC3)cc2C(=O)N/N=C/c2ccc(Cl)c(C(F)(F)F)c2)c1 [Ex. 49, (E)-N-(2-(2-(4-chloro-3-(trifluoromethyl)benzylidene)hydrazinecarbonyl)-4-(piperidin-1-yl)phenyl)-3-((3-(2-methoxyethylamino)-3-oxopropylthio)methyl)benzamide] |  |  |  |  | 24 | 3.8 ± 0.8 |
